Values quoted from earlier work as cited in article PMC9851200, “Multiparameter phenotypic screening for endogenous TFEB and TFE3 translocation identifies novel chemical series modulating lysosome function” (Autophagy, 2022).

Experiments:
Set-up in all cases: method as in original PKIS2 published data
[1] = biological target: kinases (KINOMEscan panel) (Homo sapiens, UniProt P51451); details: kinase BLK; Published KINOMEscan; ref original PKIS2 published data; cited from earlier work
[2] = biological target: kinases (KINOMEscan panel) (Homo sapiens, UniProt Q5S007); details: Published KINOMEscan; ref original PKIS2 published data; cited from earlier work
[3] = biological target: kinases (KINOMEscan panel) (Homo sapiens, UniProt Q00537); details: kinase CDK17; Published KINOMEscan; ref original PKIS2 published data; cited from earlier work
[4] = biological target: kinases (KINOMEscan panel) (Homo sapiens, UniProt P80192); details: Published KINOMEscan; ref original PKIS2 published data; cited from earlier work
Chain of kinases (KINOMEscan panel) (Homo sapiens, UniProt P80192) (P80192 whole entry): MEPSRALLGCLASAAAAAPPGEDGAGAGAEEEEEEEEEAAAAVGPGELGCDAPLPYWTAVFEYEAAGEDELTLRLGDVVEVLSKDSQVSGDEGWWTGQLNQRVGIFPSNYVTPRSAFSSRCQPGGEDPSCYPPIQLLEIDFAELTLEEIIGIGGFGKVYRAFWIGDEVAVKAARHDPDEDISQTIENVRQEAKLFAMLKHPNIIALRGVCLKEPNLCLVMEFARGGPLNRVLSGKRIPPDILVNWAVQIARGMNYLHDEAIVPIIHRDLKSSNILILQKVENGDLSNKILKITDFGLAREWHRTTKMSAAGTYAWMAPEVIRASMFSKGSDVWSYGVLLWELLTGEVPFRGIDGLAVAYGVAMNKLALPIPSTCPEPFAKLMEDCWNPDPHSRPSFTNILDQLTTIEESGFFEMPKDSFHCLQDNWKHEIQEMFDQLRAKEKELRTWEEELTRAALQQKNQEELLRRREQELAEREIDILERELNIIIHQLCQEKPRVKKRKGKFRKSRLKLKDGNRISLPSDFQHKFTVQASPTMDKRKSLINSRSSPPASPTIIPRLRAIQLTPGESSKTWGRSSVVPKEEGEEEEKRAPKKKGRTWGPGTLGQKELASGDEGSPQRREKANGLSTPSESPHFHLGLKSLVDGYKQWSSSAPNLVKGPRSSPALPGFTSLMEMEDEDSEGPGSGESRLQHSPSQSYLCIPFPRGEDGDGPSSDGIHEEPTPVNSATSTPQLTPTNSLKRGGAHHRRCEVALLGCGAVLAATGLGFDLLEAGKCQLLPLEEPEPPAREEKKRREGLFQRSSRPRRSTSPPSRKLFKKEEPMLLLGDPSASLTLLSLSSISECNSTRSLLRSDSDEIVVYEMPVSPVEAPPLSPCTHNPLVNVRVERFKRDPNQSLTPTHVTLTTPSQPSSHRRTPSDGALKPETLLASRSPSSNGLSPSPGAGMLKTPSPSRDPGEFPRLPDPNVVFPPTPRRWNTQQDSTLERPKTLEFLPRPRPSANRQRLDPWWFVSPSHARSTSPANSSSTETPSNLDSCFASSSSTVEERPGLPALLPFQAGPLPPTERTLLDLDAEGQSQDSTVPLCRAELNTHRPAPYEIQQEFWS

[5] = biological target: kinases (KINOMEscan panel) (Homo sapiens, UniProt Q13233); details: MAP3K1; Published KINOMEscan; ref original PKIS2 published data; cited from earlier work
Chain of kinases (KINOMEscan panel) (Homo sapiens, UniProt Q13233) (Q13233 whole entry): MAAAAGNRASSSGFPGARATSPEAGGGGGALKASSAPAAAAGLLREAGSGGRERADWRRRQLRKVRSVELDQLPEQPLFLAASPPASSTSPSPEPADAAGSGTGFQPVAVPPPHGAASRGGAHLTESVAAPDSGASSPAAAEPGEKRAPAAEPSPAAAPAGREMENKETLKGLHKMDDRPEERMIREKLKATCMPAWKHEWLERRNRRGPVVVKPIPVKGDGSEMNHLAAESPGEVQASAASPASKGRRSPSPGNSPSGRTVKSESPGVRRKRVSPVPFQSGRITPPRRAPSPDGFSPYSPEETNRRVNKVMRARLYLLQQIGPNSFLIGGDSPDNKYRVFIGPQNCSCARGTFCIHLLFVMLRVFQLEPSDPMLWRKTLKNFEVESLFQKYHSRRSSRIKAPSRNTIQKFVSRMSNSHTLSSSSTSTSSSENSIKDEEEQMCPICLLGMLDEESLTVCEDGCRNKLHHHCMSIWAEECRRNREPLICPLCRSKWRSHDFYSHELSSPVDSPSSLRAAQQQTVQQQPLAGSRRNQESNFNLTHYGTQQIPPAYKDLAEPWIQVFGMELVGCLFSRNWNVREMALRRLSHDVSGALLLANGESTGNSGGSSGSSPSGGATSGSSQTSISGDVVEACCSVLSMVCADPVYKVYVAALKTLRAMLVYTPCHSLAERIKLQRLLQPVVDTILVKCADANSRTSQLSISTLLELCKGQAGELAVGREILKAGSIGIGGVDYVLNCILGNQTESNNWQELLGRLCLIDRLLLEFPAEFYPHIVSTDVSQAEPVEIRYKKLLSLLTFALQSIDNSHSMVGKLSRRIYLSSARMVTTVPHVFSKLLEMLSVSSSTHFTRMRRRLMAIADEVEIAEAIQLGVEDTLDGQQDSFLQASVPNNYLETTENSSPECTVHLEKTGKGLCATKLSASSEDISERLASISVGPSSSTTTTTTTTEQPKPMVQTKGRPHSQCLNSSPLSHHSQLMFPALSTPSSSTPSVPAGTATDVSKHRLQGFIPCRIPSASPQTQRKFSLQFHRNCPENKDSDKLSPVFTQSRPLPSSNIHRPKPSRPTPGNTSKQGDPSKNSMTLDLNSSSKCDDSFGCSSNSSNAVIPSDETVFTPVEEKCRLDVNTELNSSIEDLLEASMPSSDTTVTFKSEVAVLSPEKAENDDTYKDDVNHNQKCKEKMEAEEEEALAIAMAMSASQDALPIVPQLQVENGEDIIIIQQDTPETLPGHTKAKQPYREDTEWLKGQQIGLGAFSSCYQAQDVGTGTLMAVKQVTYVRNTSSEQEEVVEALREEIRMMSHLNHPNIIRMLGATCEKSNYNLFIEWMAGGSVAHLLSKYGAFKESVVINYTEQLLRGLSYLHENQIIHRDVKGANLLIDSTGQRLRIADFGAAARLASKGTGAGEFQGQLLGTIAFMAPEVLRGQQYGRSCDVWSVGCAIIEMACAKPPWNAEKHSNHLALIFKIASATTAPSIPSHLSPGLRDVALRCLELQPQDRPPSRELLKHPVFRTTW

[6] = biological target: kinases (KINOMEscan panel) (Homo sapiens, UniProt P54756); details: kinase EPHA5; Published KINOMEscan; ref original PKIS2 published data; cited from earlier work
[7] = biological target: T1, kinases (KINOMEscan panel) (Homo sapiens, UniProt O15146); details: MUSK; Published KINOMEscan; ref original PKIS2 published data; cited from earlier work
T1 sequence (O15146 24-869): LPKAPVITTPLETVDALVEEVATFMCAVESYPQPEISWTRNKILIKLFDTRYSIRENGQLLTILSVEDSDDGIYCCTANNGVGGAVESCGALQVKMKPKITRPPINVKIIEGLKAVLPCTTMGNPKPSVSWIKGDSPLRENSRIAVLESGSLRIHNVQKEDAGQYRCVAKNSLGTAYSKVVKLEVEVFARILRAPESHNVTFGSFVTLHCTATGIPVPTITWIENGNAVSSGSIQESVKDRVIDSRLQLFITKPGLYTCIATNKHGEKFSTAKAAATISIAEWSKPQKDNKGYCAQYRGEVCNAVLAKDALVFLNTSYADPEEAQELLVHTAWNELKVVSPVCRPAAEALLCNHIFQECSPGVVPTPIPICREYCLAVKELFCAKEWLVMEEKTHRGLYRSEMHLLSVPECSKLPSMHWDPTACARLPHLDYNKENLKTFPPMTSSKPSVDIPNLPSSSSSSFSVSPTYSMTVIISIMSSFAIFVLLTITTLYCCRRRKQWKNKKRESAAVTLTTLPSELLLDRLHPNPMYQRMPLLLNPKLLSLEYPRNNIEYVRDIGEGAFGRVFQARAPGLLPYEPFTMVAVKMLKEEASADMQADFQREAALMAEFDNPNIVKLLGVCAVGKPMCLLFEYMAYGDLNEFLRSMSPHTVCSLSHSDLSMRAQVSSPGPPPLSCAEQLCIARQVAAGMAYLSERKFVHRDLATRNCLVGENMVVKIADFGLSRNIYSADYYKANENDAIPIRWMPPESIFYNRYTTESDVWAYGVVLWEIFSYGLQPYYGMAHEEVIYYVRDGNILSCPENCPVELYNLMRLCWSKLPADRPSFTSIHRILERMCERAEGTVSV

[8] = biological target: T2, kinases (KINOMEscan panel) (Homo sapiens, UniProt Q08881); details: kinase ITK; Published KINOMEscan; ref original PKIS2 published data; cited from earlier work
T2 sequence (Q08881 1-620): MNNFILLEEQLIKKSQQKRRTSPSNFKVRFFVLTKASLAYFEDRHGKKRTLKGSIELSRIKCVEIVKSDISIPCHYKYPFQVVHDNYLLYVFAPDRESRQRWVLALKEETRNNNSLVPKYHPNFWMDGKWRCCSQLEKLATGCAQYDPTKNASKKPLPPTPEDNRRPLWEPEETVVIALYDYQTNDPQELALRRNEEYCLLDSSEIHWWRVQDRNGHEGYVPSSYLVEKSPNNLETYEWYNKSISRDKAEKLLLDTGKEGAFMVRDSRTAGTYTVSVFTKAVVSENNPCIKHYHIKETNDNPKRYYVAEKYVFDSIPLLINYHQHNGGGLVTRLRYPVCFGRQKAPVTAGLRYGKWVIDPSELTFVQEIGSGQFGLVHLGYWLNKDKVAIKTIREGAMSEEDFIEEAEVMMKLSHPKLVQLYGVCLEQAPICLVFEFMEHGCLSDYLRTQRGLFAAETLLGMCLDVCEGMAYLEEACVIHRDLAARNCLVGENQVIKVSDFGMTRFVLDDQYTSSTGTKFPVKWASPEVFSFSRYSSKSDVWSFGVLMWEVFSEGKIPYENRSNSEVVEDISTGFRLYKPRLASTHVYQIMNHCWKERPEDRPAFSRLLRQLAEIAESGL

[9] = biological target: kinases (KINOMEscan panel) (Homo sapiens, UniProt Q14004); details: cited from earlier work
Chain of kinases (KINOMEscan panel) (Homo sapiens, UniProt Q14004) (Q14004 whole entry): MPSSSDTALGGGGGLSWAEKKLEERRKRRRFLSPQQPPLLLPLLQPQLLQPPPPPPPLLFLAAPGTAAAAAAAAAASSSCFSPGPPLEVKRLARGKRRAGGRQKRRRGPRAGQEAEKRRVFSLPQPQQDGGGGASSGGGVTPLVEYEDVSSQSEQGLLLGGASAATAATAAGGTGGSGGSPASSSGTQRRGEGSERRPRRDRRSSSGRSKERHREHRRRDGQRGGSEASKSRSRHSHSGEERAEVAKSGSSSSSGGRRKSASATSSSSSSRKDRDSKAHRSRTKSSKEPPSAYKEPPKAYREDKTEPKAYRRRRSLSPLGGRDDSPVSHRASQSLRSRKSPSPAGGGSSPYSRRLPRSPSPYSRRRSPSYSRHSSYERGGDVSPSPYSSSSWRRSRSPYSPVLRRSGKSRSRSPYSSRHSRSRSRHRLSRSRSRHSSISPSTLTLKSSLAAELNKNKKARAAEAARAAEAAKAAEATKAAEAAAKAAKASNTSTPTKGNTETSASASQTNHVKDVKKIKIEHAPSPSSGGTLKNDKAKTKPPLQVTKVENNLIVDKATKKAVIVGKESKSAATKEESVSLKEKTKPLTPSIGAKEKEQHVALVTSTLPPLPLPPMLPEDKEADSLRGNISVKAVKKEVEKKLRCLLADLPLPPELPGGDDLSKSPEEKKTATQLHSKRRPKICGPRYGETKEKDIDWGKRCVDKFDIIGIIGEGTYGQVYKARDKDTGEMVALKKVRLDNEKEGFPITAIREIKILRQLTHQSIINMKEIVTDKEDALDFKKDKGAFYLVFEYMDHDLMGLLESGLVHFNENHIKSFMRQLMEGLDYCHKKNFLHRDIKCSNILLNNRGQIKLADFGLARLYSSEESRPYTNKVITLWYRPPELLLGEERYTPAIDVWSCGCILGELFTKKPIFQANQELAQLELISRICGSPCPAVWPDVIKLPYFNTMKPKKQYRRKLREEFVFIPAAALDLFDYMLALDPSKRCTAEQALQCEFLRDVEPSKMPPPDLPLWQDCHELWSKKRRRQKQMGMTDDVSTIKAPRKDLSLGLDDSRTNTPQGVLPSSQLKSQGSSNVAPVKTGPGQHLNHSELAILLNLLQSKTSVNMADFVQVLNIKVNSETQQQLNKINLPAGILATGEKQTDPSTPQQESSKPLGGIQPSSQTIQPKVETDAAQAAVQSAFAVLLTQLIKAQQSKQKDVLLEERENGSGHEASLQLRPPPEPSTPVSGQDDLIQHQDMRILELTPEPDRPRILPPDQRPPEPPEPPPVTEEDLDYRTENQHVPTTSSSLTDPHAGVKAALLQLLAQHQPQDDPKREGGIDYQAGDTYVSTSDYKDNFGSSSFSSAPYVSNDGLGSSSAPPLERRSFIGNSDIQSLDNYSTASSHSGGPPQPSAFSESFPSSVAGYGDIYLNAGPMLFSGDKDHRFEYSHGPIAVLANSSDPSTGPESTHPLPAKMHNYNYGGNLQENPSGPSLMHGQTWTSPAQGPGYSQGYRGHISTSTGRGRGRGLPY

Chain of kinases (KINOMEscan panel) (Homo sapiens, UniProt P51451) (P51451 whole entry): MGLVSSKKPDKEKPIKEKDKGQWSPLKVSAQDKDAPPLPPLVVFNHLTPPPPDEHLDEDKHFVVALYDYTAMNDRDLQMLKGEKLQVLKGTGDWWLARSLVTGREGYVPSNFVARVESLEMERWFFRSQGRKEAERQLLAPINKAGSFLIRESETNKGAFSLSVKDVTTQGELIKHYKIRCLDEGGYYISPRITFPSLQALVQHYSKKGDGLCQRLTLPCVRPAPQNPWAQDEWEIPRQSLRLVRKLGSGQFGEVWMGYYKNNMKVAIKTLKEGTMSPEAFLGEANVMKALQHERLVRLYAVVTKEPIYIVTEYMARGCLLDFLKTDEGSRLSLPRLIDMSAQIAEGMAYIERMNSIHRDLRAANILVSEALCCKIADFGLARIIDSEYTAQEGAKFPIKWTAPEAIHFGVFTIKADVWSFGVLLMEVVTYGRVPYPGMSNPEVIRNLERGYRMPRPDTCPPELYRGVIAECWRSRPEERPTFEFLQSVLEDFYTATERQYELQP

## Cc1cccc(-c2nc(Nc3ccncc3)c3ccccc3n2)n1 [NK215]
[1]
  KINOMEscan BLK: 1
[2]
  KINOMEscan LRRK2: 0
[3]
  KINOMEscan CDK17: 10
[4]
  KINOMEscan MAP3K9: 11
[5]
  KINOMEscan MAP3K1: 0
[6]
  KINOMEscan EPHA5: 0
[7]
  KINOMEscan MUSK: 17
[8]
  KINOMEscan ITK: 24
[9]
  KINOMEscan CDK13: 0
